In patent publication US8324380B2, “Amino-heteroaryl-containing prokineticin 1 receptor antagonists” (Janssen Pharmaceutica NV, priority 2007, dated 2012):
Read-outs that look alike come from different tables or passages of the source.

Biological target: T1, GPR73 (prokineticin 1 receptor) (Homo sapiens, UniProt Q8TCW9)
T1 construct: expressed in transfected cells; host or cells: HEK 293
Assay: PK1 functional assay: Ca2+ mobilization on the FLIPR
Format: cell-based
Conditions: for inhibition at 10 µM: read-out: Ca^2+ Mobilization % Inh @10 µM; for IC50: HEK 293 GPR73 cells, read-out: Ca^2+ Mobilization IC50
Experimental: At a time of 24 h prior to running the assay, in cell culture media (DMEM containing high Glucose and L-glutamine, 10% FBS, 1% Pen/Streptomycin, 1% Sodium Pyruvate, 20 mM HEPES, Zeocin 200 mg/L), 100 µL of 1.3*10^6/ml HEK 293 GPR73 (prokineticin 1 receptor) expressing cells were plated in a 96 well poly-d-lysine coated plate (Costar), and incubated at 37° C. and 5% CO2. On the day in which the assay was run, the media was removed and 200 µL of 5× Calcium Plus Dye (Molecular Devices) which was previously resuspended with 200 mL of assay buffer [HBSS w/Ca^2+ and Mg^2+ w/o phenol red, 20 mM HEPES, 0.1% BSA, 10 mL probenecid (710 mg probenecid in 5 mL of 1N NaOH, to which was then added 5 mL HBSS containing 20 mM HEPES)] was added to each well of the 96-well plate. The plate was incubated at 37° C. and 5% CO2 for 30 min in dark. The plate was removed and allowed to reach RT for 15 min in the dark. The assay was then run on the FLIPR. In Brief: base line read for 1 min, compound added (25 μL) and incubated for 4 min, 15 seconds, PK1 ligand preparation added (25 μL) for a final concentration of a previously determined EC50 and fluorescence was counted for 1 min, 45 seconds. Baseline is described as the amount of relative fluorescence read when buffer alone is added to cells. Baseline was subtracted from all wells. Percent of control was calculated as follows: (Baseline subtracted well value is divided by baseline subtracted max value)*100. Percent inhibition is 100 minus the percent of control value.
The IC50 is defined as the amount of a given compound required to inhibit 50% of the maximum signal that is generated by the concentration of PK1 preparation used in our assay. IC50 values were calculated using GraphPad Prism.

T1 sequence (Q8TCW9 whole entry, species assumed): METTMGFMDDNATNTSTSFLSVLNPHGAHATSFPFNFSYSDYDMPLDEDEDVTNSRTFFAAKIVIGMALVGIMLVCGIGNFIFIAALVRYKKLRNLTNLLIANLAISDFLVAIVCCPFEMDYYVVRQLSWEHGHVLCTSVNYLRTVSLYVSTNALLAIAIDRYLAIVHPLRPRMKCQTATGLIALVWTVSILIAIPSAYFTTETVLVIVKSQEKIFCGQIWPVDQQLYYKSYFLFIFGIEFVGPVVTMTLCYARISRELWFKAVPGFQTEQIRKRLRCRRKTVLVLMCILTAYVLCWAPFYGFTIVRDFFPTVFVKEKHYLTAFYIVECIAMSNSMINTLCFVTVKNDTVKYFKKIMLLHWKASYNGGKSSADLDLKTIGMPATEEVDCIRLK

Row | Compound | inhibition at 10 µM (10 µM) | IC50 | inhibition at 10 µM (10 µM, (further determination)) | IC50 (IC50 (further determination))
1 | COc1ccc(Cn2c(NCCNc3nc4ccccc4[nH]3)nc(=O)n(Cc3ccc(Cl)c(Cl)c3)c2=O)cc1 [Cpd 1, 6-[2-(1H-Benzoimidazol-2-ylamino)-ethylamino]-3-(3,4-dichloro-benzyl)-1-(4-methoxy-benzyl)-1H-[1,3,5]triazine-2,4-dione] | 40.4% | > 10 µM |  | 
2 | COc1ccc(Cn2c(NCCn3ccnc3N)nc(=O)n(Cc3ccc(F)cc3)c2=O)cc1 [Cpd 2, 6-[2-(2-Amino-imidazol-1-yl)-ethylamino]-3-(4-fluoro-benzyl)-1-(4-methoxy-benzyl)-1H-[1,3,5]triazine-2,4-dione] | 97% |  | 97% | 0.005 µM
3 | COc1ccc(Cn2c(NCc3c[nH]c(N)n3)nc(=O)n(Cc3ccc(F)cc3)c2=O)cc1 [Cpd 6] | 91% | 0.322 µM |  | 
4 | COc1ccc(Cn2c(NCCn3c(N)nc4cc(S(C)(=O)=O)ccc43)nc(=O)n(Cc3ccc(F)cc3)c2=O)cc1 [Cpd 9] | 67% | 2.29 µM |  | 
5 | COc1ccc(Cn2c(C(=O)NCCn3c(N)nc4ccccc43)cc(=O)n(Cc3ccc(OC)cc3)c2=O)cc1 [Cpd 13, 1,3-Bis-(4-methoxy-benzyl)-2,6-dioxo-1,2,3,6-tetrahydro-pyrimidine-4-carboxylic acid [2-(2-amino-benzoimidazol-1-yl)-ethyl]-amide] | 51% | 7.39 µM |  | 
6 | Nc1nccn1CCNc1nc(=O)n(Cc2ccc(F)cc2)c(=O)n1Cc1ccc(F)cc1 [Cpd 21] | 37% | > 10 µM |  | 
7 | Nc1nc2c(F)cc(F)cc2n1CCNc1nc(=O)n(Cc2ccc(F)cc2)c(=O)n1Cc1ccc(OC(F)F)cc1 [Cpd 28] | 39% | > 10 µM |  | 
8 | Nc1nc2ccc(F)c(F)c2n1CCNc1nc(=O)n(Cc2ccc(F)cc2)c(=O)n1Cc1ccc(OC(F)F)cc1 [Cpd 29] | 83% | 0.406 µM |  | 
9 | Nc1nc2ccc(F)cc2n1CCNc1nc(=O)n(Cc2ccc(F)cc2)c(=O)n1Cc1ccc(OC(F)(F)F)cc1 [Cpd 33] | 93% | 0.323 µM |  | 
10 | Nc1nc2cc(F)ccc2n1CCNc1nc(=O)n(Cc2ccc(F)cc2)c(=O)n1Cc1ccc(OC(F)(F)F)cc1 [Cpd 34] | 87% | 0.363 µM |  | 
11 | Nc1nc2cc(C(F)(F)F)ccc2n1CCNc1nc(=O)n(Cc2ccc(F)cc2)c(=O)n1Cc1ccc(OC(F)(F)F)cc1 [Cpd 35] | 59% | 5.01 µM |  | 
12 | Nc1nc2c(F)cc(F)cc2n1CCNc1nc(=O)n(Cc2ccc(F)cc2)c(=O)n1Cc1ccc(OC(F)(F)F)cc1 [Cpd 36] | 50% | 8.24 µM |  | 
13 | Nc1nc2ccc(F)c(F)c2n1CCNc1nc(=O)n(Cc2ccc(F)cc2)c(=O)n1Cc1ccc(OC(F)(F)F)cc1 [Cpd 37] | 72% | 2.2 µM |  | 
14 | Nc1nc2ccc(Cl)cc2n1CCNc1nc(=O)n(Cc2ccc(F)cc2)c(=O)n1Cc1ccc(OC(F)(F)F)cc1 [Cpd 38] | 84% | 0.67 µM |  | 
15 | Nc1nc2c(F)cccc2n1CCNc1nc(=O)n(Cc2ccc(F)cc2)c(=O)n1Cc1ccc(OC(F)(F)F)cc1 [Cpd 39] | 80% | 0.38 µM |  | 
16 | Nc1nc2cccc(F)c2n1CCNc1nc(=O)n(Cc2ccc(F)cc2)c(=O)n1Cc1ccc(OC(F)(F)F)cc1 [Cpd 40] | 91% | 0.969 µM |  | 
17 | NC1=Nc2cc(Cl)ccc2CN1CCNc1nc(=O)n(Cc2ccc(F)cc2)c(=O)n1Cc1ccc(OC(F)(F)F)cc1 [Cpd 50] | 99% | 0.332 µM |  | 
18 | NC1=Nc2ccc(F)cc2CN1CCNc1nc(=O)n(Cc2ccc(F)cc2)c(=O)n1Cc1ccc(OC(F)(F)F)cc1 [Cpd 51] | 99% | 0.996 µM |  | 
19 | NC1=Nc2cc(F)ccc2CN1CCNc1nc(=O)n(Cc2ccc(F)cc2)c(=O)n1Cc1ccc(OC(F)(F)F)cc1 [Cpd 52] | 104% | 0.359 µM |  | 

More lines, in order of falling IC50, values ahead:

Row | inhibition at 10 µM (10 µM) | IC50 | inhibition at 10 µM (10 µM, (further determination)) | IC50 (IC50 (further determination)) | Compound
20 | 85% | 0.31 µM |  |  | Nc1nc2cc(C(F)(F)F)ccc2n1CCNc1nc(=O)n(Cc2ccc(F)cc2)c(=O)n1Cc1ccc(OC(F)F)cc1 [Cpd 27]
21 | 86% | 0.252 µM |  |  | Nc1nc2ccc(Cl)cc2n1CCNc1nc(=O)n(Cc2ccc(F)cc2)c(=O)n1Cc1ccc(OC(F)F)cc1 [Cpd 30]
22 | 103% | 0.233 µM |  |  | NC1=Nc2ccc(Cl)cc2CN1CCNc1nc(=O)n(Cc2ccc(F)cc2)c(=O)n1Cc1ccc(OC(F)(F)F)cc1 [Cpd 49]
23 | 87% | 0.17 µM |  |  | Nc1nc2ccc(F)cc2n1CCNc1nc(=O)n(Cc2ccc(F)cc2)c(=O)n1Cc1ccc(OC(F)F)cc1 [Cpd 25]
24 | 95% | 0.163 µM |  |  | COc1ccc(Cn2c(NCCn3c(N)nc4cc(C(F)(F)F)ccc43)nc(=O)n(Cc3ccc(F)cc3)c2=O)cc1 [Cpd 8]
25 | 90% | 0.155 µM |  |  | COc1ccc(Cn2c(NCCn3c(N)nc4ccc(Cl)cc43)nc(=O)n(Cc3ccc(F)cc3)c2=O)cc1 [Cpd 10]
26 | 89% | 0.146 µM |  |  | COc1ccc(Cn2c(NCCn3c(N)nc4c(F)cccc43)nc(=O)n(Cc3ccc(F)cc3)c2=O)cc1 [Cpd 11]
27 | 94% | 0.132 µM |  |  | Nc1nc2cccc(F)c2n1CCNc1nc(=O)n(Cc2ccc(F)cc2)c(=O)n1Cc1ccc(OC(F)F)cc1 [Cpd 32]
28 | 100% | 0.123 µM |  |  | NC1=Nc2ccccc2CN1CCNc1nc(=O)n(Cc2ccc(F)cc2)c(=O)n1Cc1ccc(OC(F)(F)F)cc1 [Cpd 47]
29 | 103% | 0.118 µM |  |  | NC1=Nc2cc(Cl)ccc2CN1CCNc1nc(=O)n(Cc2ccc(F)cc2)c(=O)n1Cc1ccc(OC(F)F)cc1 [Cpd 44]
30 | 101% | 0.116 µM |  |  | NC1=Nc2cccc(Cl)c2CN1CCNc1nc(=O)n(Cc2ccc(F)cc2)c(=O)n1Cc1ccc(OC(F)(F)F)cc1 [Cpd 48]
31 | 101% | 0.111 µM |  |  | NC1=Nc2ccc(Cl)cc2CN1CCNc1nc(=O)n(Cc2ccc(F)cc2)c(=O)n1Cc1ccc(OC(F)F)cc1 [Cpd 43]
32 | 102% | 0.104 µM | 100% | 0.212 µM | Nc1nc2ccccc2n1CCNc1nc(=O)n(Cc2ccc(F)cc2)c(=O)n1Cc1ccc(OC(F)(F)F)cc1 [Cpd 19]
33 | 101% | 0.092 µM |  |  | NC1=Nc2ccc(F)cc2CN1CCNc1nc(=O)n(Cc2ccc(F)cc2)c(=O)n1Cc1ccc(OC(F)F)cc1 [Cpd 45]
34 | 92% | 0.081 µM | 88% | 0.015 µM | Nc1nc2cc(F)ccc2n1CCNc1nc(=O)n(Cc2ccc(F)cc2)c(=O)n1Cc1ccc(OC(F)F)cc1 [Cpd 26]
35 | 95% | 0.077 µM |  |  | COc1ccc(Cn2c(NCCn3c(N)nc4ccccc43)nc(=O)n(Cc3ccc(Cl)cc3)c2=O)cc1 [Cpd 14]
36 | 102% | 0.069 µM |  |  | COc1ccc(Cn2c(NCCn3c(N)nc4cc(F)ccc43)nc(=O)n(Cc3ccc(F)cc3)c2=O)cc1 [Cpd 5]
37 | 101% | 0.063 µM |  |  | NC1=Nc2cccc(Cl)c2CN1CCNc1nc(=O)n(Cc2ccc(F)cc2)c(=O)n1Cc1ccc(OC(F)F)cc1 [Cpd 42]
38 | 100% | 0.061 µM |  |  | Nc1nccn1CCNc1nc(=O)n(Cc2ccc(F)cc2)c(=O)n1Cc1ccc(OC(F)(F)F)cc1 [Cpd 22]
39 | 101% | 0.061 µM |  |  | NC1=Nc2cc(F)ccc2CN1CCNc1nc(=O)n(Cc2ccc(F)cc2)c(=O)n1Cc1ccc(OC(F)F)cc1 [Cpd 46]
40 | 103% | 0.053 µM | 101% | 0.052 µM | Nc1nc2ccccc2n1CCNc1nc(=O)n(Cc2ccc(F)cc2)c(=O)n1Cc1ccc(OC(F)F)cc1 [Cpd 20]
41 | 97% | 0.048 µM | 96% | 0.042 µM | COc1ccc(Cn2c(NCCc3cnc(N)[nH]3)nc(=O)n(Cc3ccc(F)cc3)c2=O)cc1 [Cpd 4]
42 | 93% | 0.036 µM | 100% | 0.015 µM | Nc1ncc(CCNc2nc(=O)n(Cc3ccc(F)cc3)c(=O)n2Cc2ccc(OC(F)F)cc2)[nH]1 [Cpd 53]
43 | 94% | 0.028 µM |  |  | COc1ccc(Cn2c(NCCN3Cc4ccccc4N=C3N)nc(=O)n(Cc3ccc(F)cc3)c2=O)cc1 [Cpd 12, 6-[2-(2-Amino-4H-quinazolin-3-yl)-ethylamino]-3-(4-fluoro-benzyl)-1-(4-methoxy-benzyl)-1H-[1,3,5]triazine-2,4-dione]
44 | 100% | 0.028 µM | 97% | 0.057 µM | Nc1nccn1CCNc1nc(=O)n(Cc2ccc(F)cc2)c(=O)n1Cc1ccc(OC(F)F)cc1 [Cpd 23]
